Measurements published in patent US9700044B2, “Symmetrical marinopyrrole derivatives as potential antibiotic agents” (priority 2013, dated 2017).
In brackets after ≈: the same amount, converted by molar mass. Several values for one entry are separate records, joined by “and”; a condition that tells them apart may be missing. Equal values may be shown once. Read-outs that look alike come from different tables or passages of the source.

Assays:
Type in all cases: cell-based
[1] = tested on: Methicillin-susceptible Staphylococcus aureus (MSSA); test: MIC by agar dilution, MSSA clinical isolates; settings: for MIC: MSSA, data from 8 isolates
Text: (§1) A panel of multiple resistance Gram-positive and Gram-negative pathogens listed in Tables 1 and 2 was used to evaluate the antimicrobial activity of marinopyrrole derivatives (Chart 1) with vancomycin as a positive control. Except for those marked with WHO, all pathogens were isolated between 2008 and 2010 in hospitals located in Beijing; Guangzhou; Sichuan, Shandong and Jiangsu Province. Determination of the minimum inhibitory concentration (MIC) was done by the guidelines of the Clinical and Laboratory Standards Institute (Clinical and Laboratory Standards Institute, Performance standards for antimicrobial susceptibility testing, seventeenth informational supplement. 2007, 27, M100-S17). The susceptibility tests of a bacterial strain to a marinopyrrole derivative were performed by an agar dilution method. Briefly, each sterile petri dish contained a final volume of 15 mL comprising 1 mL of a marinopyrrole derivative and 14 mL of Mueller-Hinton broth. The concentrations of a marinopyrrole derivative are 128, 64, 32, 16, 8, 4, 2, 1, 0.5, 0.25, 0.125, 0.06, 0.03, 0.015 and 0.008 μg/mL. The petri dish containing the broth with different concentration of antibiotics was first inoculated with 10^5 CFU/mL (Denley A400, United Kingdom) and the culture was then incubated with shaking at 35-37° C. for 18-20 h. The potency of the compound was determined and expressed as minimum inhibitory concentration (MIC) in μg/mL. The MIC was determined as the lowest concentration of antibiotic that inhibited visible bacterial growth.

[2] = tested on: Methicillin-resistant Staphylococcus aureus (MRSA); test: MIC by agar dilution, MRSA clinical isolates; settings: for MIC: MRSA, data from 8 isolates
Text: as §1

[3] = tested on: Methicillin-resistant Staphylococcus epidermidis (MRSE); test: MIC by agar dilution, MRSE clinical isolates; settings: for MIC: MRSE
Text: as §1

[4] = tested on: Moderately vancomycin-resistant Enterococci faecium with the VanA gene (WHO-3); test: MIC by agar dilution, VRE (WHO-3); settings: WHO-3
Text: as §1

[5] = tested on: Oxacillin-resistant Staphylococcus aureus (WHO-25); test: MIC by agar dilution, ORSA (WHO-25); settings: WHO-25
Text: as §1

[6] = tested on: Methicillin-resistant Staphylococcus aureus with the mec A gene and PBP2a (WHO-31); test: MIC by agar dilution, MRSA (WHO-31); settings: WHO-31
Text: as §1

[7] = Staphylococcus aureus, Table 2, read-out: MIC
[8] = Staphylococcus epidermidis, Table 2, data from 4 isolates, read-out: MIC
[9] = Enterococcus, Table 2, read-out: MIC

MIC ([1]; Table 2) [µg/mL]	MIC ([2]; Table 2) [µg/mL]	MIC ([3]; Table 2, data from 4 isolates) [µg/mL]	MIC ([4]; Table 2) [µg/mL]	MIC ([5]; Table 2) [µg/mL]	MIC ([6]; Table 2) [µg/mL]	MIC [1, 7] [µg/mL]	MIC [2, 7] [µg/mL]	MIC [3, 8] [µg/mL]	MIC [4, 9] [µg/mL]	MIC [5, 7] [µg/mL]	MIC [6, 7] [µg/mL]	SMILES	further results
>64	>64	2 to 16	>64	>64	>64	–	–	–	–	–	–	COc1ccc(CS(=O)(=O)c2ccc(C(=O)c3[nH]c(Cl)c(Cl)c3-n3c(C(=O)c4ccc(S(=O)(=O)Cc5ccc(OC)cc5)cc4O)cc(Cl)c3Cl)c(O)c2)cc1 [Compound 30]	–
–	–	–	–	–	–	> 64	> 64	32 to 64 (≈ 46.4 to 92.7 µM)	32 (≈ 46.4 µM)	> 64	> 64	O=C(O)CSc1ccc(C(=O)c2[nH]c(Cl)c(Cl)c2-n2c(C(=O)c3ccc(SCC(=O)O)cc3O)cc(Cl)c2Cl)c(O)c1 [Compound 31]	–
–	–	–	–	–	–	> 64	> 64	8 to 64 (≈ 10.6 to 84.8 µM)	64 (≈ 84.8 µM)	> 64	> 64	O=C(O)CS(=O)(=O)c1ccc(C(=O)c2[nH]c(Cl)c(Cl)c2-n2c(C(=O)c3ccc(S(=O)(=O)CC(=O)O)cc3O)cc(Cl)c2Cl)c(O)c1 [Compound 32]	–
–	–	–	–	–	–	0.125 (≈ 0.193 µM)	0.125 to 0.25 (≈ 0.193 to 0.387 µM)	< 0.008	0.5 (≈ 0.774 µM)	1 (≈ 1.55 µM)	1 (≈ 1.55 µM)	O=C(c1ccc(C(F)(F)F)cc1O)c1[nH]c(Cl)c(Cl)c1-n1c(C(=O)c2ccc(C(F)(F)F)cc2O)cc(Cl)c1Cl [Compound 41, (4,4′,5,5′-tetrachloro-1′H-1,3′-bipyrrole-2,2′-diyl)bis((2-hydroxy-4-(trifluoromethyl)phenyl)methanone)]	MIC ([1]; Table 3): 0.125 µg/mL (≈ 0.193 µM); fold more potent than marinopyrrole A ([1]; against MSSA): 4 fold; fold more potent than vancomycin ([1]; against MSSA): 8 fold; MIC ([2]; Table 3): 0.125 to 0.25 µg/mL; fold more potent than marinopyrrole A ([2]; against MRSA): 2-4 fold and 4 fold; fold more potent than vancomycin ([2]; against MRSA): 2-4 fold and 4-8 fold; MIC ([3]; Staphylococcus epidermidis, Table 3, data from 4 isolates, read-out: MIC): < 0.008 µg/mL; MIC ([3]; Staphylococcus epidermidis, against MRSE, read-out: MIC): 0.008 µg/mL (≈ 0.0124 µM); fold more potent than marinopyrrole A ([3]; against MRSE): > 31 fold and 31 fold; fold more potent than vancomycin ([3]; against MRSE): > 62 fold and 63-125 fold; MIC ([4]; Table 3): 0.5 µg/mL (≈ 0.774 µM); MIC ([5]; Table 3): 1 µg/mL (≈ 1.55 µM); MIC ([6]; Table 3): 1 µg/mL (≈ 1.55 µM)

More lines, now with the values behind:

SMILES	MIC ([1]; Table 2) [µg/mL]	MIC ([2]; Table 2) [µg/mL]	MIC ([3]; Table 2, data from 4 isolates) [µg/mL]	MIC ([4]; Table 2) [µg/mL]	MIC ([5]; Table 2) [µg/mL]	MIC ([6]; Table 2) [µg/mL]	MIC [1, 7] [µg/mL]	MIC [2, 7] [µg/mL]	MIC [3, 8] [µg/mL]	MIC [4, 9] [µg/mL]	MIC [5, 7] [µg/mL]	MIC [6, 7] [µg/mL]	further results
O=C(c1ccc(SCc2ccccc2)cc1O)c1[nH]c(Cl)c(Cl)c1-n1c(C(=O)c2ccc(SCc3ccccc3)cc2O)cc(Cl)c1Cl [Compound 26, (4,4′,5,5′-Tetrachloro-1′H-1,3′-bipyrrole-2,2′-diyl)bis(((2-hydroxy-4-benzylthio)phenyl)methanone)]	>64	>64	8 to 32	16 (≈ 21.2 µM)	>64	>64	–	–	–	–	–	–	–
COc1ccc(CSc2ccc(C(=O)c3[nH]c(Cl)c(Cl)c3-n3c(C(=O)c4ccc(SCc5ccc(OC)cc5)cc4O)cc(Cl)c3Cl)c(O)c2)cc1 [Compound 27]	>64	>64	8 to 64	16 (≈ 19.6 µM)	>64	>64	–	–	–	–	–	–	–
CCOC(=O)CS(=O)(=O)c1ccc(C(=O)c2[nH]c(Cl)c(Cl)c2-n2c(C(=O)c3ccc(S(=O)(=O)CC(=O)OCC)cc3O)cc(Cl)c2Cl)c(O)c1 [Compound 28]	>64	>64	8 (≈ 9.87 µM)	4 (≈ 4.94 µM)	32 (≈ 39.5 µM)	>64	–	–	–	–	–	–	–
O=C(c1ccc(S(=O)(=O)Cc2ccccc2)cc1O)c1[nH]c(Cl)c(Cl)c1-n1c(C(=O)c2ccc(S(=O)(=O)Cc3ccccc3)cc2O)cc(Cl)c1Cl [Compound 29, (4,4′,5,5′-Tetrachloro-1′H-1,3′-bipyrrole-2,2′-diyl)bis(((2-hydroxy-4-benzylsulfonyl)phenyl)methanone)]	>64	>64	32 (≈ 39.1 µM)	8 (≈ 9.77 µM)	32 (≈ 39.1 µM)	64 (≈ 78.2 µM)	–	–	–	–	–	–	–
